From ChEMBL document CHEMBL1139562, “A switch in enantiomer preference between mitochondrial F1F0-ATPase chemotypes” (Bioorg Med Chem Lett, 2005)

Tests used:
[1] = target: T1, Mitochondrial complex V; ATP synthase (Bos taurus) (UniProt P05632+P00829+P05631+P05630); experiment: Inhibitory activity against mitochondrial ATP synthase from bovine
[2] = target: T1, Mitochondrial complex V; ATP synthase (Bos taurus); experiment: Inhibitory activity against mitochondrial ATP synthase from bovine; assay type: protein-complex assay
[3] = target: T1, Mitochondrial complex V; ATP synthase (Bos taurus); experiment: Inhibitory activity against mitochondrial ATP hydrolase from bovine; assay type: protein-complex assay

Inhibition [1]	Inhibition [2]	Inhibition [3]	Compound
	140 nM	> 100 µM	S=C(Nc1ccc(Cl)cc1)O[C@@H](Cn1ccnc1)c1ccc(Cl)cc1Cl
	19 nM	> 100 µM	S=C(Nc1ccc(Cl)cc1Cl)O[C@@H](Cn1ccnc1)c1ccc(Cl)cc1Cl
	3600 nM	> 100 µM	S=C(Nc1ccc(Cl)cc1)O[C@H](Cn1ccnc1)c1ccc(Cl)cc1Cl
	2200 nM	> 100 µM	S=C(Nc1ccc(Cl)cc1Cl)O[C@H](Cn1ccnc1)c1ccc(Cl)cc1Cl

Second part, the compound before the results:

Compound	Inhibition [1]	Inhibition [2]	Inhibition [3]
N#Cc1cccc(C(=O)N/C(=N\[C@@H](Cn2ccnc2)c2ccc(Cl)cc2Cl)Nc2ccc(Cl)cc2)c1	> 100 µM	> 100000 nM	
N#Cc1cccc(C(=O)N/C(=N\[C@H](Cn2ccnc2)c2ccc(Cl)cc2Cl)Nc2ccc(Cl)cc2)c1		18 nM	> 100 µM
